Experimental data as given in patent US20200308170A1, “KRAS G12C INHIBITORS” (Mirati Therapeutics, Inc., priority 2017, published 2020).

These molecules were tested against T1, KRas G12C (Homo sapiens, UniProt P01116, C118S/C51S/C80L/G12C) (assay: KRas G12C Modification Assay (LCMS detection of covalent adduct)). Conditions: 5 μM concentration for 3 hours; LC/MS of intact protein; higher POC = higher degree of modification.
T1 construct: GDP-loaded K-Ras (1-169) G12C, C51S, C80L, C118S
Type: binding
Procedure: A 10 μL aliquot of each protein solution was then transferred to a 384 well microtiter plate. Initial compound stocks were generated at fifty times their desired final assay concentration in DMSO.
Exemplary compounds of Formula (II) were diluted 25-fold into K-Ras Assay Buffer to a final of two times their final concentration. A 10 μL aliquot of each diluted compound solution was then added to each of the protein solutions in the microtiter plate to initiate reaction. […] At each time point, the reactions were quenched with 20 μL of a 25 mM acetic acid solution. […] Once all reactions were quenched, the plates were heat sealed and the samples were injected into a LC/MS system for data acquisition.
Samples were injected in their liquid phase onto a C-3 reverse phase column to remove assay buffer and prepare the samples for mass spectrometer. The proteins were eluted from the column using an acetonitrile gradient and fed directly into the mass analyzer. Initial raw data analysis took place in Agilent MassHunter software immediately post data acquisition.
Raw data analysis of the intact protein was exclusively a deconvolution of the multiple charge states of each protein in solution using a maximum entropy deconvolution provided in Mass Hunter. To minimize complexity, only the data over limited mass ranges were considered for analysis, with a minimum of one Dalton mass step intervals. The heights of all masses identified during raw data analysis were exported to be further analyzed in Spotfire® data analysis software.
Final data analysis was a multistep process in the Spotfire® data analysis software package. Briefly, each protein mass was calculated as a percent of the total signal of that sample, that percentage was then normalized to the percentage of signal of the protein in the absence of reactive compounds. Those normalized signals were reported as normalized percent of control (POC). […] Key: “A”≤25% POC; “B”>25% POC−≤50% POC; “C”>50% POC and ND=not determined.

SMILES | POC (normalized percent of control; degree of covalent modification of KRas G12C)
C=C(F)C(=O)N1CCN(c2nc(OC[C@@H]3CCCN3C)nc3c2CCN(c2cccc4cccc(C)c24)C3)C[C@@H]1CC#N [Example 36, 2-((S)-1-(2-fluoroacryloyl)-4-(7-(8-methylnaphthalen-1-yl)-2-(((S)-1-methylpyrrolidin-2-yl)methoxy)-5,6,7,8-tetrahydropyrido[3,4-d]pyrimidin-4-yl)piperazin-2-yl)acetonitrile] | C (“C”>50% POC)
Cc1cccc2cccc(N3CCc4c(nc(OC[C@@H]5CCCN5C)nc4N4CCN(C(=O)/C=C/CO)[C@@H](CC#N)C4)C3)c12 [Example 39, 2-((S)-1-((E)-4-hydroxybut-2-enoyl)-4-(7-(8-methylnaphthalen-1-yl)-2-(((S)-1-methylpyrrolidin-2-yl)methoxy)-5,6,7,8-tetrahydropyrido[3,4-d]pyrimidin-4-yl)piperazin-2-yl)acetonitrile] | C (“C”>50% POC)
C=C(C(=O)N1CCN(c2nc(OC[C@@H]3CCCN3C)nc3c2CCN(c2cccc4cccc(C)c24)C3)C[C@@H]1CC#N)C(F)(F)F [Example 21, 2-((S)-4-(7-(8-methylnaphthalen-1-yl)-2-(((S)-1-methylpyrrolidin-2-yl)methoxy)-5,6,7,8-tetrahydropyrido[3,4-d]pyrimidin-4-yl)-1-(2-(trifluoromethyl)acryloyl)piperazin-2-yl)acetonitrile] | A (“A”≤25% POC)
C=C(OC)C(=O)N1CCN(c2nc(OC[C@@H]3CCCN3C)nc3c2CCN(c2cccc4cccc(Cl)c24)C3)C[C@@H]1CC#N [Example 43, 2-[(2S)-4-[7-(8-chloro-1-naphthyl)-2-[[(2S)-1-methylpyrrolidin-2-yl]methoxy]-6,8-dihydro-5H-pyrido[3,4-d]pyrimidin-4-yl]-1-(2-methoxyprop-2-enoyl)piperazin-2-yl]acetonitrile] | A (“A”≤25% POC)
Cc1cccc(N2CCc3c(nc(OC[C@@H]4CCCN4C)nc3N3CCN(C(=O)/C=C\Cl)[C@@H](CC#N)C3)C2)c1C [Example 34, 2-((S)-1-((Z)-3-chloroacryloyl)-4-(7-(2,3-dimethylphenyl)-2-(((S)-1-methylpyrrolidin-2-yl)methoxy)-5,6,7,8-tetrahydropyrido[3,4-d]pyrimidin-4-yl)piperazin-2-yl)acetonitrile] | C (“C”>50% POC)
C=C(C(=O)N1CCN(c2nc(OC[C@@H]3CCCN3C)nc3c2CCN(c2cccc4cccc(Cl)c24)C3)C[C@@H]1CC#N)C(F)(F)F [Example 33, 2-[(2S)-4-[7-(8-chloro-1-naphthyl)-2-[[(2S)-1-methylpyrrolidin-2-yl]methoxy]-6,8-dihydro-5H-pyrido[3,4-d]pyrimidin-4-yl]-1-[2-(trifluoromethyl)prop-2-enoyl]piperazin-2-yl]acetonitrile] | C (“C”>50% POC)

Results, then the molecule that gave them:

POC (normalized percent of control; degree of covalent modification of KRas G12C) | SMILES
C (“C”>50% POC) | Cc1cccc2cccc(N3CCc4c(nc(OC[C@@H]5CCCN5C)nc4N4CCN(C(=O)/C=C\C#N)[C@@H](CC#N)C4)C3)c12 [Example 31, (Z)-4-((S)-2-(cyanomethyl)-4-(7-(8-methylnaphthalen-1-yl)-2-(((S)-1-methylpyrrolidin-2-yl)methoxy)-5,6,7,8-tetrahydropyrido[3,4-d]pyrimidin-4-yl)piperazin-1-yl)-4-oxobut-2-enenitrile]
B (“B”>25% POC−≤50% POC) | C=C(NC(C)=O)C(=O)N1CCN(c2nc(OC[C@@H]3CCCN3C)nc3c2CCN(c2cccc4cccc(C)c24)C3)C[C@@H]1CC#N [Example 54, N-(3-((S)-2-(cyanomethyl)-4-(7-(8-methylnaphthalen-1-yl)-2-(((S)-1-methylpyrrolidin-2-yl)methoxy)-5,6,7,8-tetrahydropyrido[3,4-d]pyrimidin-4-yl)piperazin-1-yl)-3-oxoprop-1-en-2-yl)acetamide]
C (“C”>50% POC) | CN1CCC[C@H]1COc1nc2c(c(N3CCN(C(=O)C#CCO)[C@@H](CC#N)C3)n1)CCN(c1cccc3cccc(Cl)c13)C2 [Example 12, 2-[(2S)-4-[7-(8-chloro-1-naphthyl)-2-[[(2S)-1-methylpyrrolidin-2-yl]methoxy]-6,8-dihydro-5H-pyrido[3,4-d]pyrimidin-4-yl]-1-(4-hydroxybut-2-ynoyl)piperazin-2-yl]acetonitrile]
C (“C”>50% POC) | Cc1cccc(N2CCc3c(nc(OC[C@@H]4CCCN4C)nc3N3CCN(C(=O)/C=C/C(F)(F)F)[C@@H](CC#N)C3)C2)c1C [Example 15, 2-((S)-4-(7-(2,3-dimethylphenyl)-2-(((S)-1-methylpyrrolidin-2-yl)methoxy)-5,6,7,8-tetrahydropyrido[3,4-d]pyrimidin-4-yl)-1-((E)-4,4,4-trifluorobut-2-enoyl)piperazin-2-yl)acetonitrile]
C (“C”>50% POC) | CN1CCC[C@H]1COc1nc2c(c(N3CCN(C(=O)/C=C/C(F)F)[C@@H](CC#N)C3)n1)CCN(c1cccc3cccc(Cl)c13)C2 [Example 13, 2-[(2S)-4-[7-(8-chloro-1-naphthyl)-2-[[(2S)-1-methylpyrrolidin-2-yl]methoxy]-6,8-dihydro-5H-pyrido[3,4-d]pyrimidin-4-yl]-1-[(E)-4,4-difluorobut-2-enoyl]piperazin-2-yl]acetonitrile]
